In article PMC4839570, “Novel Anthra[1,2-c][1,2,5]Thiadiazole-6,11-Diones as Promising Anticancer Lead Compounds: Biological Evaluation, Characterization & Molecular Targets Determination” (PLoS ONE, 2016):
Like-named read-outs stand apart in the source and are kept apart here.

Tests used:
OVCAR-4 = experiment: NCI-60 cytotoxicity screen; type: cell-based
U251 = experiment: JFCR-39 cytotoxicity screen; type: cell-based
OVCAR-3 = details: five-dose
SNB-19 = experiment: NCI-60 cytotoxicity screen; type: cell-based
[1] = system: NCI 60 human cancer cell lines; experiment: NCI-60 screen, means, ranges and selectivity over panels; type: cell-based; details: for GI50: Homo sapiens
Procedure: Both NSC745885 and NSC757963 satisfied the pre-determined threshold inhibition criteria of the NCI-60 One-Dose Screening, so they were tested against the panels of 60 cancer cell lines of NCI (NCI-60) and 39 cancer cell lines of JFCR (JFCR-39), each cell line was tested at five small doses of our compounds. Results are expressed as the 50% growth inhibition concentration (GI50), the 50% lethal concentration (LC50) and the total growth inhibition (TGI), compared to the values of untreated control cells.
To characterize the selectivity of NSC745885 and NSC757963 further among the different types of cancer, we determined their selectivity ratios towards each cell line subpanel used in the cytotoxicity experiments. […] The promising activity of this compound is evident from the small mean GI50 values. […] The strongest activity was towards the leukemia subpanel and the least one was towards the colon cancer subpanel. […] The strongest activity was towards the melanoma subpanel and the least one was towards the colon cancer subpanel.
All cell lines were published before.

HT29 = experiment: NCI-60 cytotoxicity screen; type: cell-based
SF-268 = experiment: NCI-60 cytotoxicity screen; type: cell-based
SK-MEL-28 = experiment: NCI-60 cytotoxicity screen; type: cell-based
786-0 = experiment: NCI-60 cytotoxicity screen; type: cell-based
[2] = Homo sapiens, Fig 7, read-out: mean log10 of the GI50 values (converted)
[3] = Homo sapiens, five-dose, read-out: GI50
[4] = Homo sapiens, five-dose, read-out: LC50 (the source's name)

## O=C1c2ccccc2C(=O)c2c1cc(Cl)c1nsnc21 [NSC757963]
OVCAR-4; [2]
  GI50: 1.66 µM
OVCAR-4; [3]
  GI50: 1.46 µM
OVCAR-4; [4]
  CC50: 5.5 µM
OVCAR-4; five-dose
  TGI: 2.83 µM
U251
  TGI: 3.9 µM
U251; Homo sapiens, U-251
  GI50: 1.9 µM
U251; Homo sapiens, U-251, read-out: LC50 (the source's name)
  CC50: 8.1 µM
OVCAR-3
  TGI: 3.23 µM
SNB-19; [2]
  GI50: 9.55 µM
SNB-19; [3]
  GI50: 13.9 µM
SNB-19; [4]
  CC50: 58.9 µM
SNB-19; five-dose
  TGI: 28.6 µM
[1]
  selectivity ratios of the NCI subpanels other than leukemia: less than 3
[1]; Fig 7, read-out: MG-MID of mean log10 GI50 (converted)
  GI50: 4.47 µM
[1]; NCI Breast Cancer, read-out: Mean GI50 of subpanel
  GI50: 5.11 µM
[1]; NCI CNS Cancer, read-out: Mean GI50 of subpanel
  GI50: 7.71 µM
[1]; NCI Colon Cancer, read-out: Mean GI50 of subpanel
  GI50: 11.4 µM
[1]; NCI Leukemia, read-out: Mean GI50 of subpanel
  GI50: 1.4 µM
[1]; NCI Melanoma, read-out: Mean GI50 of subpanel
  GI50: 8.44 µM
[1]; NCI Non-Small Cell Lung Cancer, read-out: Mean GI50 of subpanel
  GI50: 20.7 µM
[1]; NCI Ovarian Cancer, read-out: Mean GI50 of subpanel
  GI50: 6.77 µM
[1]; NCI Prostate Cancer, read-out: Mean GI50 of subpanel
  GI50: 8.53 µM
[1]; NCI Renal Cancer, read-out: Mean GI50 of subpanel
  GI50: 18.5 µM
[1]; all NCI subpanels, read-out: mean GI50 values of the NCI 60 subpanels, range
  GI50: 1.4 to 20.7 µM
[1]; equivalent to MID, read-out: Mean GI50 of all NCI-60 cell line panels
  GI50: 10.9 µM
[1]; five-dose, read-out: NCI-60 GI50 values, range over cell lines
  GI50: 0.33 to 72.8 µM
[1]; NCI Breast Cancer
  Selectivity ratio: 2.14
[1]; NCI CNS Cancer
  Selectivity ratio: 1.41
[1]; NCI Colon Cancer
  Selectivity ratio: 0.96
[1]; NCI Leukemia
  Selectivity ratio: 7.79
[1]; NCI Melanoma
  Selectivity ratio: 1.29
[1]; NCI Non-Small Cell Lung Cancer
  Selectivity ratio: 0.53
[1]; NCI Ovarian Cancer
  Selectivity ratio: 1.61
[1]; NCI Prostate Cancer
  Selectivity ratio: 1.28
[1]; NCI Renal Cancer
  Selectivity ratio: 0.59
HT29; Homo sapiens, HT-29, Fig 7, read-out: mean log10 of the GI50 values (converted)
  GI50: 19.5 µM
HT29; Homo sapiens, HT-29, five-dose, read-out: GI50
  GI50: 19.2 µM
HT29; Homo sapiens, HT-29, five-dose, read-out: LC50 (the source's name)
  CC50: 98.2 µM
HT29; five-dose
  TGI: 43.4 µM
SF-268; [2]
  GI50: 1.95 µM
SF-268; [3]
  GI50: 2.07 µM
SF-268; [4]
  CC50: 13.9 µM
SF-268; five-dose
  TGI: 4.83 µM
SK-MEL-28; [2]
  GI50: 5.37 µM
SK-MEL-28; [3]
  GI50: 9.52 µM
SK-MEL-28; [4]
  CC50: 47 µM
SK-MEL-28; five-dose
  TGI: 21.5 µM
786-0; 786–0, five-dose
  TGI: 31.8 µM
786-0; Homo sapiens, 786-0, Fig 7, read-out: mean log10 of the GI50 values (converted)
  GI50: 6.61 µM
786-0; Homo sapiens, 786–0, five-dose, read-out: GI50
  GI50: 17.2 µM
786-0; Homo sapiens, 786–0, five-dose, read-out: LC50 (the source's name)
  CC50: 58.8 µM
